Legend:
Format in all cases: physicochemical
[1] = particle diameter estimated from the absorbance characteristic after fine pulverization; conditions: for particle diameter after fine pulverization treatment: 355 nm, 310 mJ/cm^2Pulse
Source text: The measured value (R) of the absorbance measured by the general-purpose spectrophotometer contains the light absorption (A1) of finely-pulverized carbamazepine itself, the light scattering (S) and the light absorption (A2) of the added surfactant. A1 represents the fine pulverization state of carbamazepine, and it is estimated that the average particle diameter of carbamazepine is smaller as the light absorption is larger. Therefore, in order to estimate the particle diameter of carbamazepine after the treatment, with respect to the absorbance on the ordinate axis in FIG. 8, the increment (S) of the absorbance by the light scattering at each wavelength is approximated to the measured value (S1) of 500 nm at which carbamazepine has no absorption, and the measured value R of the absorbance is corrected to the absorbance A1 by using the operation of A1≈R−A2-S1.
The absorbance characteristic after the laser beam irradiation was measured in the same manner as example 3. In FIG. 9, the solid line represents the absorbance characteristic of the treatment target liquid using the surfactant liquid having the concentration of 1/1000, the one-dot-dashed line represents the absorbance characteristic of the treatment target liquid using the surfactant liquid having the concentration of 1/100, and the two-dot-dashed line represents the absorbance characteristic of the treatment target liquid using the surfactant liquid having the concentration of 1/10. The dashed line represents the absorbance characteristic of the treatment target liquid using no surfactant.

[2] = observation of apparent dissolution in water after laser fine pulverization
Description: Subsequently, carbamazepine was suspended in water so that the concentration thereof was equal to 2 mg/ml, thereby preparing suspended liquid, and triple higher harmonics of YAG laser ([…], FWHM=4 ns, 20 Hz, irradiation time: 15 minutes) was irradiated to the suspended liquid.

[3] = absorbance characteristic before and after laser beam irradiation (photochemical reaction / degeneration)
Description: (§1) The absorbance characteristic of the solution was measured by using a general-purpose spectrophotometer (HITACHI U-3500). […] The optical path length was set to 10 mm for the measurement.

[4] = variation of the absorbance characteristic of the finely-pulverized solution with time lapse after laser beam irradiation (dispersion stability); conditions: finely-pulverized solution in water (355 nm, 380 mJ/cm^2Pulse, 15 minutes), after six days
Description: as §1
The absorbance characteristic indicated by the dashed line is the one before laser beam irradiation.

[5] = purity after fine pulverization treatment by HPLC, laser beam wavelength dependence; conditions: one hour
Description: In this example, fine pulverization of clobetasone butyrate as adrenal cortex hormone of hardly-soluble medicament was attempted. […] A stirring magnet stick for stirring the liquid was put in the square cell so that a laser beam was uniformly irradiated to the suspended liquid. The temperature of the suspended liquid was set to room temperature of 25° C. at all times except for a temperature dependence test.
In this example, a continuously wavelength-variable OPO parametric oscillator was used as a light source for fine pulverization because the wavelength dependence of the fine pulverization and photochemical reaction by laser beam irradiation was required to be investigated. The pulse width of the irradiation laser beam was set to FWHM 4 ns, and the repetition frequency was set to 10 Hz.
Subsequently, the irradiation wavelength of the laser beam was varied and the test was carried out.

SMILES | particle diameter after fine pulverization treatment ([1]; 15 minutes, 1 mg/ml in water) | dissolution when suspended in pure water ([2]; precipitate after laser treatment (355 nm, 430 mJ/cm^2Pulse, 15 minutes)) | dissolution when suspended in pure water ([2]; sample before the treatment) | photochemical reaction on laser beam irradiation ([3]; 1 mg/ml suspended in water, 355 nm, 310 mJ/cm^2Pulse, 15 minutes, with and without surfactant Tween20) | photochemical reaction on laser beam irradiation ([3]; 2 mg/ml suspended in water, 355 nm, 430 mJ/cm^2Pulse, 15 minutes) | precipitation caused by the aggregation of fine particles [4] | purity after fine pulverization treatment (HPLC) ([5]; laser beam wavelength 500 nm or less) | purity after fine pulverization treatment (HPLC) ([5]; laser beam wavelength 500 to 800 nm) | degree of fine pulverization of the suspended liquid ([1]; 0.5 mg/ml in water, YAG pulse laser 1064 nm, 1700 mJ/cm^2 per pulse, one hour) | particle diameter after fine pulverization treatment ([1]; with added surfactant Tween20) | appearance of the solution after the laser beam irradiation ([2]; water, 355 nm, 380 mJ/cm^2Pulse) | degeneration after the treatment ([3]; 355 nm treatment, UV absorption curves just after the treatment and after six days) | photochemical reaction on laser beam irradiation ([3]; Kr-F laser 248 nm, otherwise as example 1)
NC(=O)N1c2ccccc2C=Cc2ccccc21 [carbamazepine] | sub-micron or less | instantaneously dissolved | hardly dissolved | no photochemical reaction is induced | little photochemical reaction occurred |  |  |  |  |  |  |  | 
CCCC(=O)O[C@]1(C(=O)CCl)[C@H](C)C[C@@H]2[C@@H]3CCC4=CC(=O)C=C[C@]4(C)[C@]3(F)C(=O)C[C@@]21C [clobetasone butyrate] |  |  |  |  |  | rarely observed | degradation is also small | great degradation of the purity | sub-micrometer order | sub-micron or less | transparent | no degeneration occurred | some photochemical reaction occurs
